Assay results reported in patent US20070270459A1, “Overactive bladder treating drug” (ASTELLAS PHARMA INC., priority 2002, published 2007).
Where a name gives a salt, the structure may show the parent alone.

System: overactive bladder model rat
Test: Cystometry under nonanesthesized condition in overactive bladder model (BOO) rats
Format: in vivo
Text: (1) Preparation of Overactive Bladder Model Rats
Wistar female rats (6 to 7 weeks old) were employed for the preparation. A catheter was inserted into the urinary bladder through the external urethral orifice under anesthesia with sodium pentobarbital in rats. After subjecting the abdominal region to the median section, the proximal urethra was ligated together with the catheter at 2 sites by a silk blade (5-0), and the catheter was removed.
(2) Cystometry Under Nonanesthesized Condition
At more than 6 weeks after surgery, the silk blade used for ligation of the urethra was removed under anesthesia with sodium pentobarbital. A catheter for infusion of physiological saline and for the measurement of the intravesical pressure was inserted into the urinary bladder through the top part of the urinary bladder and fixed. A catheter for administration of a drug was inserted into the jugular vein, and the rat was returned to a housing cage after recovery. At 2 days after surgery, the catheter inserted into the urinary bladder was connected to a syringe pump for continuous infusion of physiological saline (7-20 mL/hr) to induce the micturition reflex and to a pressure transducer to measure the intravesical pressure with a three way stopcock. After the micturition reflex was stabilized, physiological saline or a drug was administered through the catheter for administration of a drug inserted into the jugular vein.
As the parameters evaluated, the frequency of contraction before micturition (the number of contractions for 10 min before starting of micturition), contraction pressure (mean contraction pressure for 10 min before starting of micturition), micturition pressure and interval of micturition were employed for the present test. The effect of a drug was evaluated on the basis of the inhibition ratio against the pre-dosing values (prolongation ratio in the micturition interval).
Tamsulosin hydrochloride was administered intravenously in increasing the doses at a common ratio of about 3 (1, 3 and 10 μg/kg). The action of tamsulosin hydrochloride (3 μg/kg) in combination with Solifenacin succinate (3 mg/kg) on each parameter was also evaluated.
Each test was performed at n=5, and the results are expressed as mean±standard error. Student's t-test and Tukey's test were used for comparison between 2 groups and among multiple groups, respectively.

Structure (SMILES)	interval of micturition, prolongation ratio (3 mg/kg i.v., alone)	interval of micturition, prolongation ratio (3 μg/kg i.v., alone)	micturition pressure (10 μg/kg intravenous)	interval of micturition, prolongation ratio (10 μg/kg intravenous, vs pre-dosing value)	frequency of contraction before micturition (number of contractions for 10 min before starting of micturition) (tamsulosin hydrochloride 1, 3 and 10 μg/kg intravenous, vs pre-dosing values, n=5, FIG. 1A)	contraction pressure before micturition (mean contraction pressure for 10 min before starting of micturition) (tamsulosin hydrochloride 1, 3 and 10 μg/kg intravenous, vs pre-dosing values, n=5, FIG. 1B)	micturition pressure (tamsulosin hydrochloride alone, comparison arm of the combination test (3 μg/kg i.v.))
O=C(O[C@H]1CN2CCC1CC2)N1CCc2ccccc2[C@@H]1c1ccccc1 [solifenacin succinate, (+)-(1S,3′R)-quinuclidin-3′-yl 1-phenyl-1,2,3,4-tetrahydroisoquinoline-2-carboxylate]	2.6%						
CCOc1ccccc1OCCN[C@H](C)Cc1ccc(OC)c(S(N)(=O)=O)c1 [tamsulosin hydrochloride, (R)(−)-5-[2-[[2-(o-ethoxyphenoxy)ethyl]amino]propyl]-2-methoxybenzene-sulfonamide]		2.1%	no influence	9.2%	inhibited in a dose-dependent manner	inhibited in a dose-dependent manner	no effect
